The values below come from patent US9566330B2, “Immunogenic composition for immune system modulation and use thereof, method for treating and preventing diseases, method for inducing cell regeneration and method for restoring immune response” (priority 2011, dated 2017).

Series [1] deals with multiresistant Acinetobacter baunnamii. Briefly: Cultures of the injury area, peripheral blood and central catheter: antibiotic sensitivity. It is filed as cell-based, Acinetobacter baumannii. The method, then:
Initial assessment of the patient's injuries in the operating room on 29 Jan. […] As described, the DECA immunotherapy was applied to these areas. It is interesting to note that on this occasion cultures of internal secretions and tissue fragments were performed.

Series [2] deals with Septicemia (Pseudomonas aeruginosa, Acinetobacter baunnamii, Proteus mirabiles). Briefly: Clinical case, patient J-P: septicemia with infected complex wounds. It is filed as in vivo, human. The following applies: 6 Feb. 2011; Polymyxin B 20,000 IU/kg twice daily and other antimicrobials. An excerpt:
The patient was admitted to the ICU of Hospital Alemao Oswaldo Cruz for debridement and application of treatment with DECA which took the following form: • Application of 1.8 cc of the DECA composition divided into 2 applications of 0.9 cc per composition along the 10 main lymphatic territories. • 3-4 cm distance margin between applications to facilitate the reading of the evolution of the treatment at an interval of 4±1 days. These applications were made together with the surgical debridement (on average 1 to 2 times per week). • Administration of 36 extra perilesional compositions of 1.8 cc of each DECA in two applications of 0.9 cc per set, skirting the following open injuries without possibility of suture: the left inguinal region, the lateral side of the left thigh, the anterior left thigh and medial aspect of the left thigh, instep region and left lateral malleolus of the right leg. • Application of recombinant human interleukin-2 at low doses, at a receptor saturation level with a concentration of 1 to 2 million units per m^2 of the patient's body surface located in the region of the extra DECA applications. […]

`C[C@H]1[C@H](NC(=O)/C(=N\OC(C)(C)C(=O)O)c2csc(N)n2)C(=O)N1S(=O)(=O)O` [Aztreonam]: the “Pre-immunotherapy cultures (29/01/2011): sensitivity of the isolate” value in series [1] (Central catheter) and in series [1] (Injury in the left thigh) was “baumannii only sensitive” throughout.

Regarding Polymyxin B, the “Pre-immunotherapy cultures (29/01/2011): sensitivity of the isolate” value in series [1] (Central catheter), in series [1] (Injury in the left thigh) and in series [1] (Peripheric blood) was “baumannii only sensitive” throughout. Besides, in series [1] (isolates of left thigh wound, peripheral blood and central catheter, result of 1 Feb. 2011), the “sensitivity of the isolate” value was “sensitive”. In addition, the toxicity result in series [2] is reported as “acute renal failure with oliguria”.
